Values quoted from earlier work as cited in PMC5646416 (Journal of clinical pharmacy and therapeutics, 2017).

details: single-dose pharmacokinetic studies

SMILES | AUC higher in rs4149056 CC homozygotes than in rs4149056 TT homozygotes
CC[C@H](C)C(=O)O[C@H]1C[C@H](O)C=C2C=C[C@H](C)[C@H](CC[C@@H](O)C[C@@H](O)CC(=O)O)[C@H]21 [pravastatin] | 57–130%
O=C(O)C[C@H](O)C[C@H](O)/C=C/c1c(C2CC2)nc2ccccc2c1-c1ccc(F)cc1 [pitavastatin] | 162–191%
CCC(C)(C)C(=O)O[C@H]1C[C@@H](C)C=C2C=C[C@H](C)[C@H](CC[C@@H](O)C[C@@H](O)CC(=O)O)[C@H]21 [simvastatin acid] | 221%
CC(C)c1nc(N(C)S(C)(=O)=O)nc(-c2ccc(F)cc2)c1/C=C/[C@@H](O)C[C@@H](O)CC(=O)O [rosuvastatin] | 62–117%
